# Results taken from patent publication US11197812B2, “Cosmetic formulations for topical applications containing erythropoietin-derived molecules” (ASC REGENITY LTD., priority 2016, dated 2021).
# Where no end group is shown, it is not given here.
# Key:
# [1] = test system: facial skin of healthy subjects; experiment: Cosmetic skin improvement assay (Canfield VISIA facial skin analysis); type: in vivo, human; details: cream once a day, after one month, versus controls / dexpanthenol 5% / QEQLERALNSS formulation
# From the text: In this assay the cosmetic facial skin appearance upon application of the formulations of this invention was monitored. For that purpose, the commercially available state-of-the-art facial skin imaging and data analysis platform, the Canfield Bio Visia™, was utilized, (see here: https://www.canfieldsci.com/imaging-systems/visia-complexion-analysis/). This platform provides the possibility of a i) highly standardized, ii) highly reproducible, iii) quantitative, iv) non-invasive, and vi) subject or tester bias-free skin quality analysis. It records several photos of the face from different angles and records absorption/reflection spectra (see figure: Canfield VISIA facial skin analysis platform). […] The in-built software standardizes every parameter by comparison to a large database of skin feature norms and returns a value in the range of 0%-to 100% to permit inter-individual subject comparison.
# Healthy subjects received cosmetic creams with formulations of this invention or controls in a blinded manner, i.e. the subjects were unaware of the identity of the received cosmetic cream. […] Subject skin quality was assessed before the start of the application and after one month (31±3 days). As a control, to account for seasonal and lifestyle change associated skin quality changes, quality of the hand exterior surface was monitored as well. […]
# [2] = test system: UV light-induced erythema on skin of healthy subjects; experiment: Erythema recovery assay (UVB light-induced erythema, doubled MED); type: in vivo, human; details: 20 μl lotion on 1×1 cm^2 area, 6 hours after exposure, normalized redness
# From the text: Another means of measuring the efficacy of tissue-protection exerted by any formulation is the speed of skin recovery from a UVB light-induced erythema such as common sunburns. Erythema are skin irritations with enhanced redness of the skin due to local hyperaemia (enhanced blood flow in superficial capillaries) that is associated with repair processes in the skin. The quicker the repair process is, the quicker the hyperaemia gets shut down and thus the quicker the skin redness gets reduced to normal levels. Accordingly, the redness can be measured as a proxy for the damage status of the skin.
# In this assay, healthy subjects received the doubled minimal erythema dose (MED) on skin areas of about 1×1 cm^2 on the left arm. Beforehand, the MED was determined individually for each subject by exposing other skin areas to increasing intensities of UV light emitted by the UV6 lamp (280-360 nm) of the Waldmann UV 802 L device. […]
# Before light double MED exposure and after 6 hours, skin redness in the exposed area was spectroscopically measured using the ‘chroma meter CR-400’ manufactured by Konica Minolta. Redness of every area in every subject 6 hours after the exposure was normalized to the redness of the same area before the exposure by division of measured redness values. […]
# skin = experiment: Relative cosmetic relevance in over-all skin-protective activity; parameters: species or system human
# [3] = test system: persons suffering from acne; details: human, in vivo
# Experimental: Four test groups (corresponding to the “peptides, 0, 2, 3 and 4”) with each five persons (in total, 20 subjects) suffering from acne, were treated twice daily with a formulation of the invention (“iARP-lotion” with trigger factor complex) for one week. No undesirable or even pathological lesions in the relevant skin area of the test persons were observed.
# [4] = test system: severe acne on the face and neck; experiment: Acne Trial 1 (single test person); type: in vivo, human; details: after one week of treatment with the respective formulation
# Experimental: The test person was a person with severe acne on the face and neck. They were treated for one week with a standard cosmetic formulation based on a control lipid (dexpanthenol/panthenol), but without a polypeptide according to the invention. […] Then a cosmetic formulation according to the invention was applied, but again without a polypeptide according to the invention. The formulation contained ceramides and lecithin instead of dexpanthanol, and amino acids such as L-arginine. […] The test person then was treated with a formulation of the invention now comprising “Peptide 0”. […] After 3 weeks the test person was treated with the same formulation but which now comprised “Peptide 4” instead of the reference polypeptide (“Peptide 0”).
Compound,unwanted skin reactions caused by skin-irritating or sensitizing effects [3],overall skin tolerance compatibility [3],other results
NEQLERALNST (RRQEQLERALNSSRR; ′Peptide 0′ plus vasculature relaxation stimulating agents at 5′- and 3′ end;) [Peptide 1],–,–,"improvement of measured skin parameters (spots, wrinkles, smoothness) [1]: performed even better than the formulations with the previously described […] peptide; double MED-induced skin redness (erythema) [2]: performed even better than the formulations with the previously described […] peptide; relative cosmetic relevance in over-all skin-protective activity (rank order) (skin): EPO<EPO fragments 1-3<Peptide 0, 1<Peptide 3<Peptide 2<Peptide 4"
"QEQLERALNSS [Peptide 0, QEQLERALNSS, reference compound]",did not trigger any unwanted skin reactions,–,–
"QDQLERALNTS [Peptide 4, QDQLERALNTS]",did not trigger any unwanted skin reactions,still rated good,–
CC(C)(CO)[C@@H](O)C(=O)NCCCO [Dexpanthenol],–,–,change of acne [4]: slightly reduced
"QDQLERALNST [Peptide 3, QDQLERALNST]",did not trigger any unwanted skin reactions,improved overall skin tolerance compatibility as excellent,–
"NEQLERALNTS [Peptide 2, NEQLERALNTS]",did not trigger any unwanted skin reactions,improved overall skin tolerance compatibility as excellent,–
